Literature values as cited in patent US6197535A, “Methods for purifying and assaying a conus γ-carboxylase” (University of Utah Research Foundation, priority 1999, dated 2001).

System: N-methyl-D-aspartate receptor
Conditions: cited from earlier work

Conantokin-G
inhibition of the N-methyl-D-aspartate receptor: inhibits
